Tests used:
[1] = target: T1, Dual specificity mitogen-activated protein kinase kinase 7 (Homo sapiens) (UniProt O14733); experiment: Selectivity interaction (KinomeScan (DiscoverX)) EUB0000666a MAP2K7; settings: at 10 µM
T1 sequence (whole entry): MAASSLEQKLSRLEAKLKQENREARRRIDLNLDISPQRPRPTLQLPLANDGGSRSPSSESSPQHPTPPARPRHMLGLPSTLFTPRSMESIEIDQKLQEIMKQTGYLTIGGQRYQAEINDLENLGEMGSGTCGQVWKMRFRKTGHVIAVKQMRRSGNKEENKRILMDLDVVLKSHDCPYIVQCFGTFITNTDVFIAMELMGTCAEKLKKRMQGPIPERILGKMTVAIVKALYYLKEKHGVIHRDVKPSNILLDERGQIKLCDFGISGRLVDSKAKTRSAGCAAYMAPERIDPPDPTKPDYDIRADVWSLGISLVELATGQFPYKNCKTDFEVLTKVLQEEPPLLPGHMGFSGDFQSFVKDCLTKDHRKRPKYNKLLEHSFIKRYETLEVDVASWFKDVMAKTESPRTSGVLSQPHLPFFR

[2] = target: T2, Tyrosine-protein kinase ZAP-70 (Homo sapiens) (UniProt P43403); experiment: Selectivity interaction (Kinase panel (KiNativ target engagement assay in Jurkat cells)) EUB0001635a ZAP70; format: cell-based; settings: at 1 µM
T2 sequence (whole entry): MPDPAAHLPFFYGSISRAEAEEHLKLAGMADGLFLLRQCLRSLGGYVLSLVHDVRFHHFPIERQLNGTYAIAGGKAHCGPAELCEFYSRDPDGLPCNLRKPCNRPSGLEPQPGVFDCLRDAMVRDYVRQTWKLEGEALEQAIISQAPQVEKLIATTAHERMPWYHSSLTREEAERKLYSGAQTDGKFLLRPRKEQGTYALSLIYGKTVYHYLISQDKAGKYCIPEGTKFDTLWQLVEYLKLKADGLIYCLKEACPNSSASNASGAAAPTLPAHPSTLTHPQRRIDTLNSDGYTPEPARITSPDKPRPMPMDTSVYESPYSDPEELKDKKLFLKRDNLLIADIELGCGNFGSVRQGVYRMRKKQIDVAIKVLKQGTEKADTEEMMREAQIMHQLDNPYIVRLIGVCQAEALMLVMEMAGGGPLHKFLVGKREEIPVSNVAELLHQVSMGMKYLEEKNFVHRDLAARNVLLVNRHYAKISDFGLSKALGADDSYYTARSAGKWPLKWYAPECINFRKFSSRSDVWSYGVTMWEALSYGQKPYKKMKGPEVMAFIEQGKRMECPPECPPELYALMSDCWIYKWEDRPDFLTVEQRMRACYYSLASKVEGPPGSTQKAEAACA

[3] = target: Polycomb protein EED (Homo sapiens) (UniProt O75530); experiment: Selectivity interaction (PWWP, WD40, and Tudor domain panel (DSLS measurements, literature)) EUB0000270b EED
Chain of Polycomb protein EED (Homo sapiens) (O75530 2-441 limits assumed): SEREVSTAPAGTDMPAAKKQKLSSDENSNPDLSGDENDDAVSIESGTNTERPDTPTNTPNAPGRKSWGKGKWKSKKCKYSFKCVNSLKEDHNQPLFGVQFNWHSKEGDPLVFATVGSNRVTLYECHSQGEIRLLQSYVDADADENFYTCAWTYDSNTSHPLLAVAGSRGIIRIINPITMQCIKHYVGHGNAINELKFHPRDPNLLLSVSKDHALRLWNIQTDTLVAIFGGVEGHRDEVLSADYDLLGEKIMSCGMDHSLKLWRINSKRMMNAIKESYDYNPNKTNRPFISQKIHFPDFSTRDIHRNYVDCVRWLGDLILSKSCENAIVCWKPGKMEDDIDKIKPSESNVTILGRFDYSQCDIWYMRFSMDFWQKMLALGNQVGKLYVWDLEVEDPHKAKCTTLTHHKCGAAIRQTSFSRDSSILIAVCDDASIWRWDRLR

[4] = target: Microtubule-associated serine/threonine-protein kinase 1 (Homo sapiens) (UniProt Q9Y2H9); experiment: Selectivity interaction (ActivX KiNativ screen (kinase selectivity in THP-1 cell lysates)) EUB0000639a MAST1; format: subcellular; settings: lysate
Chain of Microtubule-associated serine/threonine-protein kinase 1 (Homo sapiens) (Q9Y2H9 whole entry, looked up): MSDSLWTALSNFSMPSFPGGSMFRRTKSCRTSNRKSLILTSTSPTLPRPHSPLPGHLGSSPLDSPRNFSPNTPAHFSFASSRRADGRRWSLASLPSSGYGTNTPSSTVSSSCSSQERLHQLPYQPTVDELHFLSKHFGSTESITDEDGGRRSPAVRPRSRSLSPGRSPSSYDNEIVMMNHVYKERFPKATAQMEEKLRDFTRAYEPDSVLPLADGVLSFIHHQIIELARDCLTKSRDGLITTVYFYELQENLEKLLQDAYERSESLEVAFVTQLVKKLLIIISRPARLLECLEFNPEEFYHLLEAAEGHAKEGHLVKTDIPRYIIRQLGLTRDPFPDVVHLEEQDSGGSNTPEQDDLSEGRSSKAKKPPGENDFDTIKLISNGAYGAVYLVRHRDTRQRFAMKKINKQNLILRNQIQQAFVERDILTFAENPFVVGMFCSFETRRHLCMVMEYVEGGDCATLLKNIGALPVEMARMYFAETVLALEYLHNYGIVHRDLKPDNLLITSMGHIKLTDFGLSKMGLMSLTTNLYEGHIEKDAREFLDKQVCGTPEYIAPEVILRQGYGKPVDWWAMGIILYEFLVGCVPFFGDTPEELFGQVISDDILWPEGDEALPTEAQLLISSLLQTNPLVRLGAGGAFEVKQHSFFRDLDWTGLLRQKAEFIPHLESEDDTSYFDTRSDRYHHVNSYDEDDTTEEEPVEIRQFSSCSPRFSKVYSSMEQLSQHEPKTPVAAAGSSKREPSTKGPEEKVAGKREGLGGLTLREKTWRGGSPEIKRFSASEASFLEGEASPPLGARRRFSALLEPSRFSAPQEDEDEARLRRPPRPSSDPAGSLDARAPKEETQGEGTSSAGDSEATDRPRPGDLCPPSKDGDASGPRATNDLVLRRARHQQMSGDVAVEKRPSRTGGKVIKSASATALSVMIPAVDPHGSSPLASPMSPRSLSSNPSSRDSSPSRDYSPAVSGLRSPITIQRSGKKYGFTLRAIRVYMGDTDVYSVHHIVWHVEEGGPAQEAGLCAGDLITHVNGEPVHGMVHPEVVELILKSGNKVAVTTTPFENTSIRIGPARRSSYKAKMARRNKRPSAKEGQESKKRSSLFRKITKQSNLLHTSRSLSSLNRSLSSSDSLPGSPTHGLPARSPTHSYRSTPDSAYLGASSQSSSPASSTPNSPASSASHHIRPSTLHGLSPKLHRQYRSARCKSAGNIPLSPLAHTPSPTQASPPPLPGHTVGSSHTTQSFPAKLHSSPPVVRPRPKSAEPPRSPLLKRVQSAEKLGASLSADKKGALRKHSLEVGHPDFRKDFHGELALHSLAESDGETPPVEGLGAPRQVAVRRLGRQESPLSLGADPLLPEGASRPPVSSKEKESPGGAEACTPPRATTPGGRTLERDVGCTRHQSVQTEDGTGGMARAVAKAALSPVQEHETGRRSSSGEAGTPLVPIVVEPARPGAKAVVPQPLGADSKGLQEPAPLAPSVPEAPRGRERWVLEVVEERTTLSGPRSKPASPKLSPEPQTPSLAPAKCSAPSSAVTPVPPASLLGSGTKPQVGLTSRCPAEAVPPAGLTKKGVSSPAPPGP

[5] = target: Serine/threonine-protein kinase PAK 6 (Homo sapiens) (UniProt Q9NQU5); experiment: Selectivity interaction (Kinase panel (Invitrogen)) EUB0000639a PAK6; settings: at 200 nM
[6] = target: Serine/threonine-protein kinase SIK2 (Homo sapiens) (UniProt Q9H0K1); experiment: Selectivity interaction (Kinase panel (Invitrogen)) EUB0000639a SIK2; settings: at 200 nM
Chain of Serine/threonine-protein kinase SIK2 (Homo sapiens) (Q9H0K1 whole entry, looked up): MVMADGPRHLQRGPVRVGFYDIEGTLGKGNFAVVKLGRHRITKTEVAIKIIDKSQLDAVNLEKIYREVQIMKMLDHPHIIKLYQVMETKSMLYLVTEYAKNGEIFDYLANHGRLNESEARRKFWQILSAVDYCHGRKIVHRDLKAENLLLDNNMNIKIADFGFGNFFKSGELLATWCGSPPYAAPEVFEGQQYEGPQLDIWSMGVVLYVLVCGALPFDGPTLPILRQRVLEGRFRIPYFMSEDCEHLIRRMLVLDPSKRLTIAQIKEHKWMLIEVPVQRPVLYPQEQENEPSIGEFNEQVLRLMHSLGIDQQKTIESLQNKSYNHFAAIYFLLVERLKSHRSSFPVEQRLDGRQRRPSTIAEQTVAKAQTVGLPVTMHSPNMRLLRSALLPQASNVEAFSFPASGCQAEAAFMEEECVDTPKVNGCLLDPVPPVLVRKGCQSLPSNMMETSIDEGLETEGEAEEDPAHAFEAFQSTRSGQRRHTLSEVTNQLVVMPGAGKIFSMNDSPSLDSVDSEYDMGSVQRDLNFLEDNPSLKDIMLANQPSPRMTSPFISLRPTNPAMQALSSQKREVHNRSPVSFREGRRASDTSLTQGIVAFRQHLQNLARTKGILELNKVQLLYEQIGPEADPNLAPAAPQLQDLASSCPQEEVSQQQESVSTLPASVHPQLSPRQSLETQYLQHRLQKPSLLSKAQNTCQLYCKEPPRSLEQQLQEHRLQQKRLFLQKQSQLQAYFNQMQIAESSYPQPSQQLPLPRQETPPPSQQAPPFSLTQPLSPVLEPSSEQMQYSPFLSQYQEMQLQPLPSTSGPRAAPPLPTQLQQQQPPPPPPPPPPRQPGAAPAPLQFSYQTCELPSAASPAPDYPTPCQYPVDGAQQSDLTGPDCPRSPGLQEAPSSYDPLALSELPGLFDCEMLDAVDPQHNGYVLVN

[7] = target: Serine/threonine-protein kinase SBK1 (Homo sapiens) (UniProt Q52WX2); experiment: Selectivity interaction (Ambit KINOMEscan and KiNATiv profiling in Jurkat cells) EUB0000090b SBK1; format: cell-based; settings: at 1 µM
[8] = target: T3, Myosin light chain kinase family member 4 (Homo sapiens) (UniProt Q86YV6); experiment: Selectivity interaction (KinomeScan (DiscoverX)) EUB0000695a MYLK4; settings: at 100 nM
T3 sequence (whole entry): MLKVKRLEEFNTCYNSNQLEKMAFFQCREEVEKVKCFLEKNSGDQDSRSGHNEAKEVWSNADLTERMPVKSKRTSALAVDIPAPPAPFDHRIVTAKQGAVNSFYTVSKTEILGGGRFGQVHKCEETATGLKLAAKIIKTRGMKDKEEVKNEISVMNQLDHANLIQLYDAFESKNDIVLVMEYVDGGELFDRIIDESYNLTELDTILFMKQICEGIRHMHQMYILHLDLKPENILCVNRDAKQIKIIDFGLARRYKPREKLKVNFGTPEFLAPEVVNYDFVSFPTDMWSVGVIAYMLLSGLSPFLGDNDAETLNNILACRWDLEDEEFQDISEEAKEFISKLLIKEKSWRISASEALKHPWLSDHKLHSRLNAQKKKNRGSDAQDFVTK

[9] = target: Protein kinase C delta type (Homo sapiens) (UniProt Q05655); experiment: Selectivity interaction (KinomeScan (DiscoverX)) EUB0000695a PRKCD; settings: at 100 nM
[10] = target: T4, Aurora kinase A (Homo sapiens) (UniProt O14965); experiment: Selectivity interaction (KinomeScan (DiscoverX)) EUB0000607a STK6; settings: at 10 µM
T4 sequence (whole entry): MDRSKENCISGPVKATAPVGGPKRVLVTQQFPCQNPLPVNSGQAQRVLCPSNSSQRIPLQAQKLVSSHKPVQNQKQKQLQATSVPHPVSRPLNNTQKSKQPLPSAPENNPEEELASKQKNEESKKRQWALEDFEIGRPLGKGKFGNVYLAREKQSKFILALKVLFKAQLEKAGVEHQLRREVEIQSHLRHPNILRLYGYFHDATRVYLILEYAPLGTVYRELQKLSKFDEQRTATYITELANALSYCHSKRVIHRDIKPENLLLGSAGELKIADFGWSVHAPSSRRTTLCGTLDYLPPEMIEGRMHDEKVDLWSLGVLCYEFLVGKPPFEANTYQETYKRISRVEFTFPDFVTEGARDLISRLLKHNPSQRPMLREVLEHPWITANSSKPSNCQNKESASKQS

[11] = target: Glycogen synthase kinase-3 beta (Homo sapiens, UniProt P49841); experiment: Selectivity interaction (Rxn Biology Kinase assay) EUB0001632a GSK3B; settings: at 10 µM
Chain of Glycogen synthase kinase-3 beta (P49841 whole entry, looked up): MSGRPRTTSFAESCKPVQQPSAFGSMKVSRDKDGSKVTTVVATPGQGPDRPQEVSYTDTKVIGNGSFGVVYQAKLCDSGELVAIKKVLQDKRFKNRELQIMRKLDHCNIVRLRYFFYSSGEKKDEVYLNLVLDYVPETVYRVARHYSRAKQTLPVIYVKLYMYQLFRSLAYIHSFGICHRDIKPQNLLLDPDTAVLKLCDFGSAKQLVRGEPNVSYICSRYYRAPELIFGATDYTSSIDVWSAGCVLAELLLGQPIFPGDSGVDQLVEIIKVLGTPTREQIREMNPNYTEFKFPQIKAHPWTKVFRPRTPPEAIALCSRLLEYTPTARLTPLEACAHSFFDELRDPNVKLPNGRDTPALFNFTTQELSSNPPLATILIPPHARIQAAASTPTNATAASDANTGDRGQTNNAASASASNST

[12] = target: Serine/threonine-protein kinase MRCK beta (Homo sapiens) (UniProt Q9Y5S2); experiment: Selectivity interaction (ProQinase) EUB0000171b CDC42BPB
Chain of Serine/threonine-protein kinase MRCK beta (Homo sapiens) (Q9Y5S2 whole entry): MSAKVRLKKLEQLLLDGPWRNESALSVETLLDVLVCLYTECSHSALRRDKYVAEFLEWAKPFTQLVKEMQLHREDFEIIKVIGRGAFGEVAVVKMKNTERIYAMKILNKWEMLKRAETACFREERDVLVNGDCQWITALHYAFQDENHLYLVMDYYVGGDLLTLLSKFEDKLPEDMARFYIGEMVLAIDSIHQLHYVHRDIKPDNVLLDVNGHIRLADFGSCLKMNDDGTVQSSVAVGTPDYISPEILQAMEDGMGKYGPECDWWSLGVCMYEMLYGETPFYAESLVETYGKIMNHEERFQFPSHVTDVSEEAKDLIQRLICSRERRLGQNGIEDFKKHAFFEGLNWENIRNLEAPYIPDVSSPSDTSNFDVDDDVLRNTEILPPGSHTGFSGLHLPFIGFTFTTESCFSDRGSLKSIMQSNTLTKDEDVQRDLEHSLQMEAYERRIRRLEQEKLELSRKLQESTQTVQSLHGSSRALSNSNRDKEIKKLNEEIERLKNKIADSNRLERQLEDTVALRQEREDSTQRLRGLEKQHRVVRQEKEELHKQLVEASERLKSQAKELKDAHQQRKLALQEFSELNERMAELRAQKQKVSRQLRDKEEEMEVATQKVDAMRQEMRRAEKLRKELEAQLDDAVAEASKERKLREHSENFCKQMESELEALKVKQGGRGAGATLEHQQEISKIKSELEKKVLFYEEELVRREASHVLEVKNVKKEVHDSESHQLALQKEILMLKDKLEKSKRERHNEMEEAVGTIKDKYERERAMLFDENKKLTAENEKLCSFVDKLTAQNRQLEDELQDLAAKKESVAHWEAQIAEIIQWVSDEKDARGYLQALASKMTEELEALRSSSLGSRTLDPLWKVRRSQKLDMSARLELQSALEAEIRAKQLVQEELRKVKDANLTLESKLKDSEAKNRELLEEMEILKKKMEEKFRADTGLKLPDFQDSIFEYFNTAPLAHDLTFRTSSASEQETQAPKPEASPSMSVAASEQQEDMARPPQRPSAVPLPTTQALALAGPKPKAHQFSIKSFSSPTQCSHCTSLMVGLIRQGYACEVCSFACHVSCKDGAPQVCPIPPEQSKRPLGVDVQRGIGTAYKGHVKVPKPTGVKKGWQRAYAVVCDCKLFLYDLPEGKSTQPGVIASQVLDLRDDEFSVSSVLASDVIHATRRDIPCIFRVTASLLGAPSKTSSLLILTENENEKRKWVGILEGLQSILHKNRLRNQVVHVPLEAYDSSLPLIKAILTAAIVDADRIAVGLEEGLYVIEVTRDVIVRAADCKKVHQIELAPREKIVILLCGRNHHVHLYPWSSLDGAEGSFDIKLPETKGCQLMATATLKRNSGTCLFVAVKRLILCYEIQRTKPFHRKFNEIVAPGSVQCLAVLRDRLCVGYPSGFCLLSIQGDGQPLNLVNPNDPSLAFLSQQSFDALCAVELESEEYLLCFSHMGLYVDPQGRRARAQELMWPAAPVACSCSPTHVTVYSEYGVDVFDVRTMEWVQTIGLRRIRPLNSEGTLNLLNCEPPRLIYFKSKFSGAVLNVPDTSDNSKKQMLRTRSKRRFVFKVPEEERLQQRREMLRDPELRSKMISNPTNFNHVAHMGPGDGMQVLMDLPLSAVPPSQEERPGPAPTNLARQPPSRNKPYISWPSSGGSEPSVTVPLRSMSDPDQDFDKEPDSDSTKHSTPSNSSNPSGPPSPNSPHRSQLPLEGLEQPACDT

SMILES: O=C(NOC[C@H](O)CO)c1ccc(F)c(F)c1Nc1ccc(I)cc1F
- % of control [1]: 100%

SMILES: C=CC(=O)Nc1ccc(C(=O)Nc2[nH]nc3c2CN(C(=O)N[C@H](CN(C)C)c2ccccc2)C3(C)C)cc1
- % of engagement ([2]; Selectivity number of off-targets 0.0, Selectivity number of targets 233.0, Source Knowledge https://www.sciencedirect.com/science/article/pii/S2451945619300674?via%3Dihub): -13.8%
- % of engagement [2]: -8.5%

SMILES: Cc1cc(CN)cc(C)c1-c1ncn(C)c1-c1cncn1C
- dTagg [3]: 0.2 K

SMILES: CC[C@@H]1[C@H](F)C(=O)N[C@@H]1COc1nccc2cc(C(N)=O)c(OC)cc12 [ZIMLOVISERTIB]
- % of inhibition ([4]; at 0.01 µM): -0.4%
- % of inhibition ([4]; at 0.04 µM): -2.4%
- % of inhibition ([4]; at 0.2 µM): -2.5%
- % of inhibition ([4]; at 1 µM): -1.4%
- % of inhibition ([4]; at 5 µM): -30.3%
- % of inhibition [5]: 5.16%
- % of inhibition [6]: 2.07%

SMILES: CN(C)C/C=C/C(=O)Nc1ccc(C(=O)N2CCCC(Nc3ncc(Cl)c(-c4c[nH]c5ccccc45)n3)C2)cc1 (stereo not drawn)
- % of control [7]: 100%

SMILES: Cc1cc(F)c(C(=O)Nc2cccc(-c3nncn3C(C)C)n2)cc1-n1cnc(C2CC2)c1
- % of control [8]: 100%
- % of control [9]: 100%

SMILES: CNC(=O)Nc1ccc(-c2nc(N3CC4CCC(C3)O4)c3cnn(C4CCC5(CC4)OCCO5)c3n2)cc1
- % of control [10]: 100%

SMILES: Cn1cc(-n2cnc3c(NCc4nc5cc(Cl)c(Cl)cc5[nH]4)nc(N4CCOCC4)nc32)cn1
- % of inhibition [11]: 96.5%

SMILES: C=CC(=O)Nc1cccc(C(=O)Nc2ccc(Nc3cc(-c4[nH]c(SC)nc4C)ccn3)cc2)c1
- % of control ([12]; at 1 µM): 89%
- % of control ([12]; at 5 µM): 82%

Source: ChEMBL document CHEMBL5465560, “Selectivity Literature for EUbOPEN Chemogenomic Library” (2024)
